These compounds were tested against T1, human FASN (Homo sapiens, UniProt P49327) (assay: FASN NADPH Consumption Assay). Details: human FASN purified from SKBR3 cells; starred symbols.
T1 construct: was purified from SKBR3 cells using procedures modified from those in Jayakumar et al; endogenous in cells; host or cells: SKBR3 human breast cancer cells (ATCC); Endogenous enzyme purified by ammonium sulfate precipitation and a mono Q column
Format: biochemical
How it was run: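 Native human FASN purified from SKBR3 cells (60 nM final) preincubated 30 min at 37 °C with compound (2.4 nM–40 μM, 4% DMSO) in pH 7.0 phosphate buffer with 5 mM DTT. Reaction started with 0.2 mM NADPH, 50 μM butyryl-CoA, 0.5 mM malonyl-CoA; NADPH consumption followed kinetically by fluorescence (ex 340/em 460 nm); IC50 from logistic fit.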

T1 sequence (P49327 whole entry): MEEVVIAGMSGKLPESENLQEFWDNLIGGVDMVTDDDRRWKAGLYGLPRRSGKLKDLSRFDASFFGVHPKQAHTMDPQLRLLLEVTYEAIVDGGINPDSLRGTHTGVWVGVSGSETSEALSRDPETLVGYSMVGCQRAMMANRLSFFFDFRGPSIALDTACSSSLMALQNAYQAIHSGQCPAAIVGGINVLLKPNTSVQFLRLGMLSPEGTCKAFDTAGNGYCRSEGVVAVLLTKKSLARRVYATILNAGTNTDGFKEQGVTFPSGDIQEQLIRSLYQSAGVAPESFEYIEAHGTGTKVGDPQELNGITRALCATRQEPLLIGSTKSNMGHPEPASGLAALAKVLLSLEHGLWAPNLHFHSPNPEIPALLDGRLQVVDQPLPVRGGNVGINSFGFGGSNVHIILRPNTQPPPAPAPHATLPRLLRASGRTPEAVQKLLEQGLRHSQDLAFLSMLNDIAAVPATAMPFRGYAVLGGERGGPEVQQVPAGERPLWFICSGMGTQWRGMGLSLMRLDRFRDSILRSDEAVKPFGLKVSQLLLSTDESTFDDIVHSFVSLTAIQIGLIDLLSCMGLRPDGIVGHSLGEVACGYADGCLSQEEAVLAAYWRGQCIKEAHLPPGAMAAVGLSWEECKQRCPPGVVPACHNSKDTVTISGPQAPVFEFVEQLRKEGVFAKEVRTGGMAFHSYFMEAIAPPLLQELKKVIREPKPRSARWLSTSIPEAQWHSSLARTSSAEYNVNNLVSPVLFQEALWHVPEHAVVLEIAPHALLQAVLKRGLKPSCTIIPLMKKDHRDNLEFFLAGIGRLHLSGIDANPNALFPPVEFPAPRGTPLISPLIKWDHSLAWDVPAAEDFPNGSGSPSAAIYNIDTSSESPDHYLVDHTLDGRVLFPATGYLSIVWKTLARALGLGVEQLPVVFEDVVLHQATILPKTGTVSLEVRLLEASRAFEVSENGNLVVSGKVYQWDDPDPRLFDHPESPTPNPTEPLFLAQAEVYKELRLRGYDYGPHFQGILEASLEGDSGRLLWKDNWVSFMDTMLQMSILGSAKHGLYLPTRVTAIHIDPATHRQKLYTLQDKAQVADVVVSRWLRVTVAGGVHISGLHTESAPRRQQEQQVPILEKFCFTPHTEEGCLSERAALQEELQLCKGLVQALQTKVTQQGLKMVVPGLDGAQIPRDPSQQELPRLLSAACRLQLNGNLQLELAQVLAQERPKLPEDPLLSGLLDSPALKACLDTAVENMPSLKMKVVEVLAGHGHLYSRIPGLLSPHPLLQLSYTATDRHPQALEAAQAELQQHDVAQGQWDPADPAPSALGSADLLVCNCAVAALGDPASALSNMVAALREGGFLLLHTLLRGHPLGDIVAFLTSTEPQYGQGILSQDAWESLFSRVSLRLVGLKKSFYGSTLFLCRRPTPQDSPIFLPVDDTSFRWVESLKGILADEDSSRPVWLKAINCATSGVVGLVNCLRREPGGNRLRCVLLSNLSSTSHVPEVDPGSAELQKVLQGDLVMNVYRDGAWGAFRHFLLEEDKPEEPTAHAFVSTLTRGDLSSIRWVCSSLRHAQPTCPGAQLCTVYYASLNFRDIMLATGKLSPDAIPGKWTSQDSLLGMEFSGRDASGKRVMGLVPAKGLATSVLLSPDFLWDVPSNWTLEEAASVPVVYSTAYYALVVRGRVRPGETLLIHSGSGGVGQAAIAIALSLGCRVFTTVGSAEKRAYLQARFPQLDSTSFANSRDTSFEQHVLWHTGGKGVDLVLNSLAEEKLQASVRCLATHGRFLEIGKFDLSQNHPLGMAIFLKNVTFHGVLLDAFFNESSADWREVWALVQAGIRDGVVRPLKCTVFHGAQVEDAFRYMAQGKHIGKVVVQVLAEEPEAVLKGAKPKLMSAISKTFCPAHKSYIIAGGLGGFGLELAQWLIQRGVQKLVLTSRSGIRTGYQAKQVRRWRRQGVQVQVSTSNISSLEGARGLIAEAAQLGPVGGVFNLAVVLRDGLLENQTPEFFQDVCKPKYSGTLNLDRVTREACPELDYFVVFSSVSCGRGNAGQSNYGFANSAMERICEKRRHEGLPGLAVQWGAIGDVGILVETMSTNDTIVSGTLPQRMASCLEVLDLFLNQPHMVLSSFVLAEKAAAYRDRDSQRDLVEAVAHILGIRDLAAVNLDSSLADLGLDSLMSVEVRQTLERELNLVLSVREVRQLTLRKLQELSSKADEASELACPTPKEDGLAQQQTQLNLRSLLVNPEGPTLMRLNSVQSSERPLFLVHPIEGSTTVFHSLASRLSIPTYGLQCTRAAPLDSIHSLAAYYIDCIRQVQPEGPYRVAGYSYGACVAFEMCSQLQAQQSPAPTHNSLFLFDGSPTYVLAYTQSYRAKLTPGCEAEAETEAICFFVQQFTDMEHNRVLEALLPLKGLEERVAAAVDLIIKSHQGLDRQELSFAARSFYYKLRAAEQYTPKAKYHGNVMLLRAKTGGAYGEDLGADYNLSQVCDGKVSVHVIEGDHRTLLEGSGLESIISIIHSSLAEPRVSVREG

IC50 [µM]	SMILES
1 to 10	CCNC(=O)N1CCC(N(CC)C(=O)n2nnn(-c3c(Cl)cccc3Cl)c2=O)CC1
1 to 10	CCN(C(=O)n1nnn(-c2c(Cl)cccc2Cl)c1=O)C1CCN(C(=O)OC(C)(C)C)CC1
> 10	CCN(C(=O)n1nnn(-c2c(Cl)cccc2Cl)c1=O)C1CCN(C)CC1
1 to 10	CCN(C(=O)n1nnn(-c2c(Cl)cccc2Cl)c1=O)C1CCN(S(C)(=O)=O)CC1
1 to 10	CCN(C(=O)n1nnn(-c2c(Cl)cccc2Cl)c1=O)C1CCN(C(C)=O)CC1
1 to 10	CCNC(=O)N1CCCC(N(CC)C(=O)n2nnn(-c3c(Cl)cccc3Cl)c2=O)C1 (stereo not shown)
1 to 10	CCN(C(=O)n1nnn(-c2c(Cl)cccc2Cl)c1=O)C1CCCN(C(C)=O)C1 (stereo not shown)
1 to 10	CCN(C(=O)n1nnn(-c2c(Cl)cccc2Cl)c1=O)C1CCCN(C(=O)OC(C)(C)C)C1 (stereo not shown)
1 to 10	CCOC(=O)N1CCCC(N(CC)C(=O)n2nnn(-c3c(Cl)cccc3Cl)c2=O)C1 (stereo not shown)
1 to 10	CCN(C(=O)n1nnn(-c2c(Cl)cccc2Cl)c1=O)C1CCCN(S(C)(=O)=O)C1 (stereo not shown)
1 to 10	CCCN(C(=O)n1nnn(-c2ccccc2Cl)c1=O)C1CCCCC1
1 to 10	O=C(NCCCN(C(=O)n1nnn(-c2c(Cl)cccc2Cl)c1=O)C1CCCCC1)c1cccnc1
1 to 10	CCN(C(=O)n1nnn(-c2c(Cl)cccc2Cl)c1=O)C1CCC(C(=O)O)CC1 (stereo not shown)
1 to 10	CCN(C(=O)n1nnn(-c2c(Cl)cccc2Cl)c1=O)C1CCCC(C(=O)NC)C1 (stereo not shown)
1 to 10	CC(C)(C)OC(=O)NCCCN(C(=O)n1nnn(-c2c(Cl)cccc2Cl)c1=O)C1CCCCC1
1 to 10	CCN(C(=O)n1nnn(-c2c(Cl)cccc2Cl)c1=O)C1CCCC(C(=O)NCC(N)=O)C1 (stereo not shown)
1 to 10	CC(=O)NCCCN(C(=O)n1nnn(-c2c(Cl)cccc2Cl)c1=O)C1CCCCC1

IC50 [µM]	SMILES
> 10	CC(C)C[C@@H](NC=O)C(=O)NCCCN(C(=O)n1nnn(-c2c(Cl)cccc2Cl)c1=O)C1CCCCC1
1 to 10	CCN(C(=O)n1nnn(-c2c(Cl)cccc2Cl)c1=O)C1CCCC(C(=O)O)C1 (stereo not shown)
1 to 10	CNC(=O)CN(C(=O)n1nnn(-c2c(Cl)cccc2Cl)c1=O)C1CCCCC1
> 10	CC(=O)NCCN(C(=O)n1nnn(-c2c(Cl)cccc2Cl)c1=O)C1CCCCC1
1 to 10	CCN(C(=O)n1nnn(-c2c(Cl)cccc2Cl)c1=O)C1CCC(C(=O)NC)CC1 (stereo not shown)
1 to 10	O=CNCC(=O)NCCCN(C(=O)n1nnn(-c2c(Cl)cccc2Cl)c1=O)C1CCCCC1
> 10	O=C(N(Cc1ccco1)C1CCCCC1)n1nnn(-c2c(Cl)cccc2Cl)c1=O
> 10	Cc1nonc1NC(=O)CN(C(=O)n1nnn(-c2c(Cl)cccc2Cl)c1=O)C1CCCCC1
1 to 10	CCNC(=O)NCCCN(C(=O)n1nnn(-c2c(Cl)cccc2Cl)c1=O)C1CCCCC1
> 10	CCN(C(=O)n1nnn(-c2c(C)cccc2C)c1=O)C1CCCCC1
> 10	CCN(C(=O)n1nnn(-c2c(Cl)cccc2C(F)(F)F)c1=O)C1CCCCC1
1 to 10	CCN(C(=O)n1nnn(-c2c(C)cccc2Cl)c1=O)C1CCCCC1
1 to 10	CCN(C(=O)n1nnn(-c2ccc(Cl)cc2Cl)c1=O)C1CCCCC1
1 to 10	CCN(C(=O)n1nnn(-c2cc(Cl)ccc2Cl)c1=O)C1CCCCC1
1 to 10	CCN(C(=O)n1nnn(-c2cccc(Cl)c2Cl)c1=O)C1CCCCC1
1 to 10	CCN(C(=O)n1nnn(-c2c(Cl)cc(Cl)cc2Cl)c1=O)C1CCCCC1

The next lines start with the compound.

SMILES	IC50 [µM]
C=CCN(C(=O)n1nnn(-c2ccccc2Oc2ccccc2)c1=O)C1CCN(C(=O)OC(C)(C)C)CC1	1 to 10
CCN(C(=O)n1nnn(-c2c(Cl)cccc2Cl)c1=O)C1CCN(C(=O)Cc2ccccc2)CC1	0.25 to 1
CCN(C(=O)n1nnn(-c2c(Cl)cccc2Cl)c1=O)C1CCN(C(=O)CCC(=O)O)CC1	1 to 10
CN1C2CCC1CC(N(CCc1ccccc1)C(=O)n1nnn(-c3c(Cl)cccc3Cl)c1=O)C2 (stereo not shown)	> 10
CCN(C(=O)n1nnn(-c2c(Cl)cccc2Cl)c1=O)C1CCCN(C(=O)CCC(=O)O)C1 (stereo not shown)	1 to 10
CCN(C(=O)n1nnn(-c2c(Cl)cccc2Cl)c1=O)C1CCCN(C(=O)Cc2ccccc2)C1 (stereo not shown)	1 to 10
CCN(C(=O)n1nnn(-c2c(Cl)cccc2Cl)c1=O)C1CCOC(C)(C)C1 (stereo not shown)	1 to 10
O=C(NC1CCCCC1)n1nnn(-c2ccccc2)c1=O	> 10
CCN(C(=O)n1nnn(-c2ccccc2)c1=O)C1CCCCC1	> 10
CCN(C(=O)n1nnn(-c2ccccc2SC)c1=O)C1CCCCC1	1 to 10
CCN(C(=O)n1nnn(-c2ccccc2Oc2ccccc2)c1=O)C1CCCCC1	1 to 10
CCc1ccccc1-n1nnn(C(=O)N(CC)C2CCCCC2)c1=O	1 to 10
CCN(C(=O)n1nnn(-c2ccccc2I)c1=O)C1CCCCC1	1 to 10
CCC(C)c1ccccc1-n1nnn(C(=O)N(CC)C2CCCCC2)c1=O (stereo not shown)	1 to 10
CCN(C(=O)n1nnn(-c2ccccc2F)c1=O)C1CCCCC1	1 to 10
CCN(C(=O)n1nnn(-c2ccccc2C(C)(C)C)c1=O)C1CCCCC1	> 10
CCN(C(=O)n1nnn(-c2ccccc2Cl)c1=O)C1CCCCC1	1 to 10
CCN(C(=O)n1nnn(-c2ccccc2Br)c1=O)C1CCCCC1	1 to 10
CC(C)N(C(=O)n1nnn(-c2ccccc2Cl)c1=O)C1CCCCC1	> 10
CCN(C(=O)n1nnn(-c2ccccc2OC(F)(F)F)c1=O)C1CCCCC1	1 to 10
CCN(C(=O)n1nnn(-c2ccccc2C#N)c1=O)C1CCCCC1	1 to 10
CCN(C(=O)n1nnn(-c2ccccc2OC)c1=O)C1CCCCC1	1 to 10
CN(C(=O)n1nnn(-c2ccccc2Cl)c1=O)C1CCCCC1	1 to 10

SMILES	IC50 [µM]
CCN(C(=O)n1nnn(-c2ccccc2C(C)C)c1=O)C1CCCCC1	1 to 10
CCN(C(=O)n1nnn(-c2ccccc2C)c1=O)C1CCCCC1	1 to 10
CCN(C(=O)n1nnn(-c2ccc([N+](=O)[O-])cc2)c1=O)C1CCCCC1	1 to 10
CCN(C(=O)n1nnn(-c2ccc(OC)cc2)c1=O)C1CCCCC1	> 10
CCN(C(=O)n1nnn(-c2ccc(C(F)(F)F)cc2)c1=O)C1CCCCC1	> 10
CCN(C(=O)n1nnn(-c2ccc(Cl)cc2)c1=O)C1CCCCC1	> 10
CCN(C(=O)n1nnn(-c2ccc(N(C)C)cc2)c1=O)C1CCCCC1	1 to 10
CCN(C(=O)n1nnn(-c2ccc(F)cc2)c1=O)C1CCCCC1	> 10
CCN(C(=O)n1nnn(-c2cccc(F)c2)c1=O)C1CCCCC1	> 10
CCN(C(=O)n1nnn(-c2c(Cl)cccc2Cl)c1=O)C1CCC(C(=O)OCc2ccc(OC)cc2)CC1 (stereo not shown)	> 10
CCN(C(=O)n1nnn(-c2c(Cl)cccc2Cl)c1=O)C1CCCC(C(=O)OCc2ccccc2)C1 (stereo not shown)	1 to 10
CCN(C(=O)n1nnn(-c2c(Cl)cccc2Cl)c1=O)C1CCCC(C(=O)N2CCN(C)CC2)C1 (stereo not shown)	1 to 10
CCN(C(=O)n1nnn(-c2c(Cl)cccc2Cl)c1=O)C1CCC(NC(=O)OC(C)(C)C)CC1 (stereo not shown)	> 10
CCN(C(=O)n1nnn(-c2c(Cl)cccc2Cl)c1=O)C1CCC(C(=O)N2CCOCC2)CC1 (stereo not shown)	> 10
CCN(C(=O)n1nnn(-c2c(Cl)cccc2Cl)c1=O)[C@@H]1CCC[C@@H](C(=O)N2CCOCC2)C1	1 to 10
CCN(C(=O)n1nnn(-c2c(Cl)cccc2Cl)c1=O)C1CCC(C(=O)NC(C(N)=O)c2ccccc2)CC1 (stereo not shown)	1 to 10
CCN(C(=O)n1nnn(-c2c(Cl)cccc2Cl)c1=O)C1CCC(C(=O)N2CCN(C)CC2)CC1 (stereo not shown)	> 10
CCN(C(=O)n1nnn(-c2c(Cl)cccc2Cl)c1=O)C1CCC(N(C)C)CC1 (stereo not shown)	> 10
COc1cccc(F)c1-n1nnn(C(=O)N(C2CCCCC2)C2CCCCC2)c1=O	1 to 10
CCN(C(=O)n1nnn(-c2c(C)cccc2C(C)(C)C)c1=O)C1CCCCC1	> 10
CCCCc1ccc(-n2nnn(C(=O)N(CC)C3CCCCC3)c2=O)c(C)c1	> 10
CCN(C(=O)n1nnn(-c2ccc([N+](=O)[O-])cc2Cl)c1=O)C1CCCCC1	> 10
CCN(C(=O)n1nnn(-c2ccc(F)cc2F)c1=O)C1CCCCC1	1 to 10

SMILES	IC50 [µM]
CCN(C(=O)n1nnn(-c2ccc(C(F)(F)F)cc2Cl)c1=O)C1CCCCC1	> 10
CCN(C(=O)n1nnn(-c2ccc(Br)cc2Br)c1=O)C1CCCCC1	1 to 10
CCN(C(=O)n1nnn(-c2cc(F)ccc2F)c1=O)C1CCCCC1	1 to 10
CCN(C(=O)n1nnn(-c2cccc3nsnc23)c1=O)C1CCCCC1	1 to 10
CCN(C(=O)n1nnn(-c2c(C)cc(C)cc2C)c1=O)C1CCCCC1	> 10
CCN(C(=O)n1nnn(-c2ccc(F)c(F)c2F)c1=O)C1CCCCC1	> 10
CN(C)N(C(=O)n1nnn(-c2ccccc2F)c1=O)C1=CCCCC1	0.25 to 1
CN(C)N(C(=O)n1nnn(-c2ccccc2Br)c1=O)C1=CCCCC1	0.25 to 1
CN(C)N(C(=O)n1nnn(-c2ccccc2Cl)c1=O)C1=CCCCC1	1 to 10
CN(C)N(C(=O)n1nnn(-c2cccc(Cl)c2)c1=O)C1=CCCCC1	1 to 10
CCNC(=O)n1nnn(-c2ccccc2)c1=O	> 10
C/C=C/C/C=C/CCCN(CCC)C(=O)n1nnn(-c2ccccc2Cl)c1=O	0.25 to 1
CCCCCCCCCCCCN(C)C(=O)n1nnn(-c2ccccc2Cl)c1=O	0.25 to 1
CCN(CC)C(=O)n1nnn(-c2ccccc2Cl)c1=O	1 to 10
C/C=C/C/C=C/CCCN(C)C(=O)n1nnn(-c2ccccc2Cl)c1=O	1 to 10
CCN(C)C(=O)n1nnn(-c2ccccc2Cl)c1=O	> 10
CCCN(C)C(=O)n1nnn(-c2ccccc2Cl)c1=O	> 10
CCCCCCN(C)C(=O)n1nnn(-c2ccccc2Cl)c1=O	1 to 10
CC(C)N(C(=O)n1nnn(-c2ccccc2Cl)c1=O)C(C)C	> 10
CCN(C(=O)n1nnn(-c2ccccc2Cl)c1=O)C(C)(C)C	> 10
CCN(CCOC(=O)[C@H](CC(C)C)NC=O)C(=O)n1nnn(-c2c(Cl)cccc2Cl)c1=O	1 to 10
